Consider six molecules from patent US11044909B2, “Composition for destruction of microalgae or sphaerocarpus” (CUREARTH, INC., priority 2015, dated 2021).

Structures are written as SMILES.

The subject of series [1] is Heterosigma Akashiwo. As to the kind of experiment: Microalgae-destroying effect by IC50 measurement (cell count). The conditions noted are these: 24 h, Table 1, 3,4-dichlorobenzylamines, 0.1-5 uM, cultured 1 day, read-out: IC50 Heterosigma Akashiwo. The class given is cell-based. The protocol:
(§1) The IC50 value was obtained according to Equation 1: […]
(§2) First, the above-listed microalgae were cultured in a culture flask at a temperature of about 20° C. under light conditions, and a medium used was Guillard's f/2 medium which is commonly used in the art (Guillard R R L and Keller M D. Culturing dinoflagellates. In: Spector (Ed.), Dinoflagellates. New York: Academic Press; 1984, 391442).
(§3) After the cultured microalgae were transferred onto a 24-well plate, Chattonella Marina, Heterosigma circularisquama, Cochlodinium Polykrikoides, and Heterosigma akashiwo, which were in an exponential growth phase, were treated with Compounds 1 to 3, 5 to 10, 12, 13, 17 to 43, and 45 to 47 synthesized in Examples 1 to 3, 5 to 10, 12, 13, 17 to 43, and 45 to 47 at concentrations of 0.1 uM, 0.2 uM, 0.5 uM, 1 uM, 2 uM, and 5 uM, and then cultured for 1 day.
(§4) Control groups were not treated with any of the compounds synthesized in the above-identified examples. After incubation, the number of cells of each alga was counted using a Burker-Tukr hemocytometer, and IC50 values were calculated according to Equation 1 using SigmaPlot Version 11.2 software (Standard curve: the four-parameter logistic curve).

The subject of series [2] is Chattonella Marina. The series is described as above. Format: cell-based. The note with it: 24 h, Table 1, 3,4-dichlorobenzylamines, 0.1-5 uM, cultured 1 day, read-out: IC50 Chattonella Marina. The protocol: as §1, §2, §3, §4
Series [3] concerns Heterocapsa Circularisquama. Described as above. The class given is cell-based. The note with it: 24 h, Table 1, 3,4-dichlorobenzylamines, 0.1-5 uM, cultured 1 day, read-out: IC50 Heterocapsa Circularisquama. The protocol:
as §1, §2, §3, §4

For series [4], the system named is Microcystis aeruginosa. The description is as above. The class given is cell-based. The note with it: Microcystis aeruginosa, 120 h; Table 1, 3,4-dichlorobenzylamines; 0.1-20 uM, cultured 5 days; read-out: IC50 Microcystis aeruginosa. The protocol: (§5) The IC50 value was obtained according to Equation 1:
(§6) The algicidal activity of each compound was calculated using Equation 2: Algicidal activity (%)=(1−Tt/Ct)×100 <Equation 2>
(§7) In Equation 2, T (treatment group) and C (control group) represent algae densities in cell counts when each compound was inoculated and was not inoculated, respectively, and t represents the number of days which had passed after the inoculation.
as §2
Microcystis aeruginosa was treated with Compounds 1 to 3, 5 to 10, 12, 13, 17 to 43, and 45 to 51 synthesized in Examples 1 to 3, 5 to 10, 12, 13, 17 to 43, and 45 to 51 at concentrations of 0.1 uM, 0.2 uM, 0.5 uM, 1 uM, 2 uM, 5 uM, 10 uM, 15 uM, and 20 uM and then cultured for 5 days.
as §4

In series [5] the test system is Microcystis aeruginosa. Nature of the series: Microalgae-destroying effect of Compound 2, viable cell counts. The class given is cell-based. The note with it: 0.5 μM, 1 μM, and 2 μM, observed for 2 days; FIG. 3. The protocol: To investigate a microalgae-destroying effect of Compound 2 synthesized in Example 2, culture solutions of Microcystis aeruginosa (40 mL; initial population number: 100×10^4/mL) in DMSO and BG11 medium were each treated with solutions of Compound 2 at 0.5 μM, 1 μM, and 2 μM and observed for 2 days. A culture solution of the microalgae not treated with a solution of Compound 2 was used as a control group.

Series [6] concerns Cochlodinium Polykrikoides. Nature of the series: Microalgae-destroying effect by IC50 measurement (cell count). The class given is cell-based. The conditions noted are these: Margalefidinium polykrikoides, 24 h; Table 1, 3,4-dichlorobenzylamines; 0.1-5 uM, cultured 1 day; read-out: IC50 Cochlodinium Polykrikoides. The protocol:
as §5, §6, §7, §2, §3, §4

The test system of a further series is Danio rerio. As to the kind of experiment: Acute toxicity test on Danio rerio. The class given is in vivo. The note with it: 15 μM, 2 weeks; FIG. 5. The protocol: An acute toxicity test on Danio rerio (zebrafish) was performed using compounds 33 and 35 synthesized in Examples 33 and 35. In particular, 2-cm-sized Danio rerio, which had been 3 months since hatching, was acclimatized for 14 days before the start of the experiment. The Danio rerio were feed twice a day during the acclimation period. Next, solutions of Compounds 33 and […] were prepared at concentrations of 0, 5, 10, 15, 20, 25, and 30 μM. Culture solutions of the Danio rerio (10 L, initial population number: 10 zebrafish in total (1 zebrafish/L)) were treated for 2 weeks with the solutions of Compounds 33 and 35 at different concentrations to thereby perform the acute toxicity test.

In the next series the test system is Daphnia magna. Nature of the series: Acute toxicity test on Daphnia magna. The class given is in vivo. The conditions noted are these: 5 μM, 2 days; FIG. 4. The protocol:
An acute toxicity test was performed on Daphnia magna (water flea) using Compounds 33 and 35 synthesized in Examples 33 and 35. In particular, culture solutions of Daphnia magna (200 mL, 30 animals) in DMSO and M4 medium were treated with solutions of Compounds 33 and 35 at 5 μM, 10 μM, and 15 μM for 2 days.

The subject of series [7] is Heterosigma Circularisquama. As to the kind of experiment: Microalgae-destroying effect by surviving cells rate measurement. Format: cell-based. The conditions noted are these: 1 μM, about 6 hours. The protocol:
(§8) To investigate a microalgae-destroying effect of Compound 35 synthesized in Example 35, culture solutions of Chattonella Marina, Heterosigma Circularisquama, Cochlodinium Polykrikoides, and Heterosigma akashiwo (40 mL, initial population number: about 15×10^4 to 18×10^4/mL) were each treated with a solution of Compound 35 (1 μM in dimethyl sulfoxide (DMSO) and f/2 medium) for about 6 hours. A microalgae culture solution not treated with a solution of Compound 35 was used as a control group. After the treatment, viable cell ratios of the microalgae with respect to time were measured, and it was also observed whether the microalgae were destroyed.

Series [8] has as its system Cochlodinium Polykrikoides. Described as above. The class given is cell-based. The conditions noted are these: 1 μM, about 6 hours. The protocol:
as §8

Series [9] relates to Heterosigma Akashiwo. Described as above. The note with it: 1 μM, about 6 hours. Format: cell-based. The protocol: as §8
Series [10] concerns Chattonella Marina. The description is as above. Format: cell-based. The conditions noted are these: 1 μM, about 6 hours. The protocol: as §8

As a reminder, the IC50 is the midpoint of a concentration-inhibition curve. Regarding `CCN(CC)CCCNCc1ccc(Cl)c(Cl)c1` [Compound 2, N′-(3,4-Dichloro-benzyl)-N,N-diethyl-propane-1,3-diamine], the IC50 in the series on Heterosigma Akashiwo [1] was 1300 nM; with Chattonella Marina [2], 2600 nM; in series [3], 3400 nM; with Microcystis aeruginosa [4], 570 nM; in [6], 327 nM. Besides, the “viable cell counts of Microcystis with respect to time” value with Microcystis aeruginosa [5] is listed as “high algicidal effect”.

As for `Clc1ccc(CNC2CCCC2)cc1Cl` [Compound 33, Cyclopentyl-(3,4-dichloro-benzyl)-amine], the half-inhibitory concentration (IC50) was determined as 243 nM with Heterosigma Akashiwo [1]; 320 nM with Chattonella Marina [2]; 1040 nM in series [3]; 19500 nM with Microcystis aeruginosa [4]; 360 nM in series [6]. In addition, the survival ratio was 100% in the series on Danio rerio and “about 100%” with Daphnia magna.

Regarding `Clc1ccc(CNC2CCCCC2)cc1Cl` [Compound 35, Cyclohexyl-(3,4-dichloro-benzyl)-amine], the IC50 was determined as 218 nM in the series on Heterosigma Akashiwo [1]; 290 nM in the series on Chattonella Marina [2]; 1140 nM in series [3]; 14600 nM in the series on Microcystis aeruginosa [4]; 150 nM in [6]. Further, in the series on Danio rerio, the survival ratio worked out at 100%. The “viable cell ratio with respect to time” value (in series [7] (FIG. 1); in series [8] (FIG. 1); with Heterosigma Akashiwo [9] (FIG. 1); in the series with Chattonella Marina [10] (FIG. 1)) was “decreased with time” in each case. The “whether the microalgae were destroyed (microscope images)” value (in series [7] (FIG. 2); in series [8] (FIG. 2); in the series with Heterosigma Akashiwo [9] (FIG. 2); in the series on Chattonella Marina [10] (FIG. 2)) was “destroyed” each time.

As to `Clc1ccc(CNC2CCc3ccccc32)cc1Cl` (stereo not drawn) [Compound 45, (3,4-Dichloro-benzyl)-indan-1-yl-amine], the 50% inhibitory concentration (IC50) is 1140 nM in the series on Heterosigma Akashiwo [1]; 1440 nM in the series with Chattonella Marina [2]; 2000 nM in series [3]; greater than 20000 nM in the series on Microcystis aeruginosa [4]; 310 nM in series [6].

Regarding `Clc1ccc(CNC2CCC2)cc1Cl` [Compound 46, Cyclobutyl-(3,4-dichloro-benzyl)-amine], the IC50 with Heterosigma Akashiwo [1] turned out to be 482 nM; with Chattonella Marina [2] it was 1130 nM; in series [3], 3080 nM; in the series on Microcystis aeruginosa [4] it was 15800 nM; in [6], 1670 nM.

For `Clc1ccc(CNC2CCCCCCC2)cc1Cl` [Compound 47, Cyclooctyl-(3,4-dichloro-benzyl)-amine], the half-inhibitory concentration (IC50) in the series with Heterosigma Akashiwo [1] came out at 340 nM; in the series with Chattonella Marina [2], 500 nM; in series [3], 1190 nM; in the series with Microcystis aeruginosa [4], 15000 nM; in [6] it was 100 nM.
